Results: article PMC7565984, “A Phosphorylation-Induced Switch in the Nuclear Localization Sequence of the Intrinsically Disordered NUPR1 Hampers Binding to Importin” (Biomolecules, 2020)
Where a SMILES comes first, the peptide text is derived from it. [ ]: non-standard residue; d: D form. pT = C[C@@H](OP(=O)(O)O)[C@H](N)C(=O)O

How the values were obtained:
[1] = target: T1, ΔImpα3 (importin α3 without the IBB domain, residues 64-521) (Homo sapiens, UniProt O00629); assay: ITC binding of NLS-NUPR1 peptides / NUPR1 to ΔImpα3; details: ITC, 298 K; for ΔH (binding enthalpy), ΔImpα3: absolute error 0.5 kcal/mol; for −TΔS (entropic contribution), ΔImpα3: calculated from Kd and ΔH, absolute error 0.7 kcal/mol; for n (stoichiometry; fraction of binding-competent protein), ΔImpα3: absolute error 0.2, value in parenthesis = fixed in the fit due to low affinity
T1 construct: The His-tagged ΔImpα3 (residues 64-521) was obtained from BL21 (DE3) cells as described; His-tag; made in house; host or cells: Escherichia coli BL21 (DE3)
T1 sequence (O00629 64-521): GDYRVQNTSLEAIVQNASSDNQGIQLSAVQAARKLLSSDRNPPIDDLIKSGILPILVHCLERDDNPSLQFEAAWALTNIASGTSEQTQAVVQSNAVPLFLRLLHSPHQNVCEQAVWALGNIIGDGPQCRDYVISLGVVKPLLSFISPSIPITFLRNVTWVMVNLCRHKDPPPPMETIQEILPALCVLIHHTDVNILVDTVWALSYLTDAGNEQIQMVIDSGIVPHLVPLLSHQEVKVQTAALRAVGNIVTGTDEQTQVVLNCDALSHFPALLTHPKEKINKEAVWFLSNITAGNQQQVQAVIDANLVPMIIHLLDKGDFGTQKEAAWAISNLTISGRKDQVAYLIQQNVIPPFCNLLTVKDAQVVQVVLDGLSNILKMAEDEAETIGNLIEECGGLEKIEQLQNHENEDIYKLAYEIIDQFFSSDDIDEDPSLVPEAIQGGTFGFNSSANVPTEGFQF
Protocol: (§1) The experimental set-up and data processing of ITC experiments has been described previously. Calorimetric titrations, performed in an Auto-iTC200 calorimeter (MicroCal, Malvern-Panalytical, Malvern, UK) consisted of series of 19 2-μL injections, with 150 s time spacing and a 750-rpm stirring speed. Impα3 or ΔImpα3 (at 10–20 μM) was loaded into the calorimetric cell and NLS-NUPR1 peptides in the syringe (150–300 μM); all solutions were prepared in buffer Tris 50 mM, pH 8. […] The binding affinity (association constant) and the binding enthalpy were estimated through a least-squares nonlinear regression data analysis, from which the Gibbs energy and the entropic contribution to the binding were calculated using well-known thermodynamic relationships. Since the binding stoichiometry is constrained by the model, the parameter n provides a fraction of the active or binding competent protein. Experiments for each peptide and importin species were performed, at least, in duplicates.

[2] = target: T2, human importin α3 (Impα3) (Homo sapiens, UniProt O00629); assay: ITC binding of NLS-NUPR1 peptides / NUPR1 to Impα3; details: for ΔH (binding enthalpy), Impα3 / −TΔS (entropic contribution), Impα3 / n (stoichiometry; fraction of binding-competent protein), Impα3 / Kd: ITC, 298 K; for ΔH (binding enthalpy), Impα3 / −TΔS (entropic contribution), Impα3 / Kd: Tris 50 mM pH 8; for ΔH (binding enthalpy), Impα3: absolute error 0.5 kcal/mol; for −TΔS (entropic contribution), Impα3: calculated from Kd and ΔH, absolute error 0.7 kcal/mol; for n (stoichiometry; fraction of binding-competent protein), Impα3: absolute error 0.2, value in parenthesis = fixed in the fit due to low affinity; for Decrease of the affinity for Impα3 relative to wt peptide: from ITC Kd values; for Kd: importin 10–20 μM in cell, peptide 150–300 μM in syringe, 1:1 model, at least duplicates, relative error 30%, read-out: Kd (dissociation constant), Impα3
T2 construct: although the IBB region maintains its independence within the whole Impα3 in terms of conformation; His-tag (N); made in house; host or cells: Escherichia coli BL21 (DE3)
T2 sequence (O00629 1-521): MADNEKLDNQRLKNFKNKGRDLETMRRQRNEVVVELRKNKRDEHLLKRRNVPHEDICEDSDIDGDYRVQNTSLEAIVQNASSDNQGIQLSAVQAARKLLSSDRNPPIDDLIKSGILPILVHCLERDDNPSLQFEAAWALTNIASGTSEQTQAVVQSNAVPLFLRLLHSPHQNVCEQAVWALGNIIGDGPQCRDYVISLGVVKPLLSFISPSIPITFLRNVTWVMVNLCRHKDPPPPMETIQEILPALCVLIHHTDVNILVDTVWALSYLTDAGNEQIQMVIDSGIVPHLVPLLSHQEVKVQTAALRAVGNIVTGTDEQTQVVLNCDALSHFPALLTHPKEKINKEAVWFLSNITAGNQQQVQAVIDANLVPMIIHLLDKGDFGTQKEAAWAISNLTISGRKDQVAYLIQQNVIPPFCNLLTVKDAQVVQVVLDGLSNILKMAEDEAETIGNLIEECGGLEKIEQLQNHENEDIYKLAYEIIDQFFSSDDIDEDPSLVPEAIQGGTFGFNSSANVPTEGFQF
Protocol: as §1

[3] = Translational diffusion by NMR DOSY (hydrodynamic properties); type: physicochemical; details: for D, translational diffusion coefficient: 283 K, pH 7.2, 50-mM deuterated Tris, 100% D2O, peptide 120 μM; for Rh, hydrodynamic radius from D: from the translational diffusion coefficient of dioxane (Rh = 2.12 Å) added to each sample
Protocol: Concentrations of peptides in all DOSY experiments were 120 μM, and 128 scans, where the gradient strength was varied, were acquired for each curve. Translational self-diffusion measurements were performed with the pulsed gradient spin-echo sequence in the presence of 100% D2O. Experimental details have been described elsewhere. Briefly, the gradient strength was varied in sixteen linear steps between 2% and 95% of the total power of the gradient coil. The gradient strength was previously calibrated by using the value of the translational diffusion coefficient, D, for the residual proton water line in a sample containing 100% D2O in a 5-mm tube [34]. In our experiments for each peptide, the duration of the gradient was 2.25 ms, the time between the two pulse gradients in the pulse sequence was set to 200 ms, and the recovery delay between the bipolar gradients was set to 100 μs. The methyl groups with signals between 1.0 and 0.80 ppm were used for integration. Fitting of the exponential curves obtained from experimental data was carried out with KaleidaGraph (Synergy Software, Version 3.5), as described. A final concentration of 1% of dioxane, which was assumed to have a hydrodynamic radius Rh = 2.12 Å [34], was added to the solutions of each of the peptides to have a comparison for estimating their sizes.

Structure (SMILES)	ΔH (binding enthalpy), ΔImpα3 ([1]; Tris 50 mM pH 8) [kcal/mol]	−TΔS (entropic contribution), ΔImpα3 ([1]; Tris 50 mM pH 8) [kcal/mol]	n (stoichiometry; fraction of binding-competent protein), ΔImpα3 [1]	ΔH (binding enthalpy), Impα3 [2] [kcal/mol]	−TΔS (entropic contribution), Impα3 [2] [kcal/mol]	n (stoichiometry; fraction of binding-competent protein), Impα3 [2]	Decrease of the affinity for Impα3 relative to wt peptide [2]	D, translational diffusion coefficient [3] [cm^2 s^−1 × 10^6]	Rh, hydrodynamic radius from D [3] [Å]	Kd ([1]; Tris 50 mM pH 8, importin 10–20 μM in cell, peptide 150–300 μM in syringe, 1:1 model, at least duplicates, relative error 30%, read-out: Kd (dissociation constant), ΔImpα3) [µM]	Kd [2] [µM]
CC(=O)N[C@@H](Cc1ccc(O)cc1)C(=O)N[C@H](C(=O)N[C@@H](CC(N)=O)C(=O)N[C@@H](CCCNC(=N)N)C(=O)N1CCC[C@H]1C(=O)N[C@@H](CO)C(=O)N1CCC[C@H]1C(=O)NCC(=O)NCC(=O)N[C@@H](Cc1c[nH]cn1)C(=O)N[C@@H](CCC(=O)O)C(=O)N[C@@H](CCCNC(=N)N)C(=O)N[C@@H](C)C(=O)N[C@@H](CC(C)C)C(=O)N[C@H](C(=O)N[C@H](C(=O)N[C@@H](CCCCN)C(=O)N[C@@H](CC(C)C)C(=O)N[C@@H](CCC(N)=O)C(=O)N[C@@H](CC(N)=O)C(=O)N[C@@H](CO)C(=O)N[C@@H](CCC(=O)O)C(N)=O)[C@@H](C)O)C(C)C)[C@@H](C)O [K65A] (Ac-YTNRPSPGGHERALVTKLQNSE-NH2)	-10.2	2.6	1.4	-2.8	-4.6	1.4	two-fold	1.94 ± 0.08	11 ± 1	–	–
CC(=O)N[C@@H](Cc1ccc(O)cc1)C(=O)N[C@H](C(=O)N[C@@H](CC(N)=O)C(=O)N[C@@H](CCCNC(=N)N)C(=O)N1CCC[C@H]1C(=O)N[C@@H](CO)C(=O)N1CCC[C@H]1C(=O)NCC(=O)NCC(=O)N[C@@H](Cc1c[nH]cn1)C(=O)N[C@@H](CCC(=O)O)C(=O)N[C@@H](CCCNC(=N)N)C(=O)N[C@@H](CCCCN)C(=O)N[C@@H](CC(C)C)C(=O)N[C@H](C(=O)N[C@H](C(=O)N[C@@H](C)C(=O)N[C@@H](CC(C)C)C(=O)N[C@@H](CCC(N)=O)C(=O)N[C@@H](CC(N)=O)C(=O)N[C@@H](CO)C(=O)N[C@@H](CCC(=O)O)C(N)=O)[C@@H](C)O)C(C)C)[C@@H](C)O [K69A] (Ac-YTNRPSPGGHERKLVTALQNSE-NH2)	-21.3	14.3	1.4	-10.8	4.0	1.3	six-fold	1.79 ± 0.06	12 ± 2	–	–
CC(=O)N[C@@H](Cc1ccc(O)cc1)C(=O)N[C@H](C(=O)N[C@@H](CC(N)=O)C(=O)N[C@@H](CCCNC(=N)N)C(=O)N1CCC[C@H]1C(=O)N[C@@H](CO)C(=O)N1CCC[C@H]1C(=O)NCC(=O)NCC(=O)N[C@@H](Cc1c[nH]cn1)C(=O)N[C@@H](CCC(=O)O)C(=O)N[C@@H](CCCNC(=N)N)C(=O)N[C@@H](CCCCN)C(=O)N[C@@H](CC(C)C)C(=O)N[C@H](C(=O)N[C@@H](CCC(=O)O)C(=O)N[C@@H](C)C(=O)N[C@@H](CC(C)C)C(=O)N[C@@H](CCC(N)=O)C(=O)N[C@@H](CC(N)=O)C(=O)N[C@@H](CO)C(=O)N[C@@H](CCC(=O)O)C(N)=O)C(C)C)[C@@H](C)O [T68EK69A] (Ac-YTNRPSPGGHERKLVEALQNSE-NH2)	-21.2	14.7	–	-7.5	1.0	–	–	1.87 ± 0.08	11 ± 1	17	17
CC(=O)N[C@@H](Cc1ccc(O)cc1)C(=O)N[C@H](C(=O)N[C@@H](CC(N)=O)C(=O)N[C@@H](CCCNC(=N)N)C(=O)N1CCC[C@H]1C(=O)N[C@@H](CO)C(=O)N1CCC[C@H]1C(=O)NCC(=O)NCC(=O)N[C@@H](Cc1c[nH]cn1)C(=O)N[C@@H](CCC(=O)O)C(=O)N[C@@H](CCCNC(=N)N)C(=O)N[C@@H](CCCCN)C(=O)N[C@@H](CC(C)C)C(=O)N[C@H](C(=O)N[C@@H](CCC(=O)O)C(=O)N[C@@H](CCCCN)C(=O)N[C@@H](CC(C)C)C(=O)N[C@@H](CCC(N)=O)C(=O)N[C@@H](CC(N)=O)C(=O)N[C@@H](CO)C(=O)N[C@@H](CCC(=O)O)C(N)=O)C(C)C)[C@@H](C)O [T68E] (Ac-YTNRPSPGGHERKLVEKLQNSE-NH2)	-17.5	10.8	–	-11.1	4.7	–	–	2.17 ± 0.06	10 ± 1	–	–
CC(=O)N[C@@H](Cc1ccc(O)cc1)C(=O)N[C@H](C(=O)N[C@@H](CC(N)=O)C(=O)N[C@@H](CCCNC(=N)N)C(=O)N1CCC[C@H]1C(=O)N[C@@H](CO)C(=O)N1CCC[C@H]1C(=O)NCC(=O)NCC(=O)N[C@@H](Cc1c[nH]cn1)C(=O)N[C@@H](CCC(=O)O)C(=O)N[C@@H](CCCNC(=N)N)C(=O)N[C@@H](CCCCN)C(=O)N[C@@H](CC(C)C)C(=O)N[C@H](C(=O)N[C@H](C(=O)N[C@@H](CCCCN)C(=O)N[C@@H](CC(C)C)C(=O)N[C@@H](CCC(N)=O)C(=O)N[C@@H](CC(N)=O)C(=O)N[C@@H](CO)C(=O)N[C@@H](CCC(=O)O)C(N)=O)[C@@H](C)OP(=O)(O)O)C(C)C)[C@@H](C)O [pT68] (Ac-YTNRPSPGGHERKLV[pT]KLQNSE-NH2)	-28.2	22.0	–	-14.8	–	–	–	1.89 ± 0.08	11 ± 1	–	27
